Experiments:
BT-549 = experiment: Cytotoxicity assay using propidium iodide (PI); format: cell-based; conditions: Homo sapiens, 48 h treatment
Procedure: (§1) The propidium iodide fluorescence assay (PI) was carried out according to the procedure mentioned in Anticancer Drugs, 1995, 6, 522-32. The assay was developed to characterize the in vitro growth of human tumor cell lines as well as to test the cytotoxic activity of the compounds. Propidium iodide (PI) was used as a dye, which penetrates only damaged cellular membranes. Intercalation complexes are formed by PI with double-stranded DNA, which effect an amplification of the fluorescence. After freezing the cells at −20° C. for 24 h, PI had access to total DNA leading to total cell population counts. Background readings were obtained from cell-free wells containing media and propidium iodide. The human breast cancer cell lines (i.e. […] Control wells were treated with vehicle (DMSO). At the end of the incubation periods, the plates were assayed using PI cytotoxicity assay protocol. Percent cytoxicity was calculated at various drug concentrations and from the graph plotted the IC50 values were determined.

HBL-100 = experiment: Cytotoxicity assay using propidium iodide (PI); format: cell-based; conditions: Homo sapiens
Procedure: as §1

MDA-MB-361 = experiment: Cytotoxicity assay using propidium iodide (PI); format: cell-based; conditions: Homo sapiens
Procedure: as §1

MDA-MB-435-S = experiment: Cytotoxicity assay using propidium iodide (PI); format: cell-based; conditions: Homo sapiens
Procedure: as §1

T47-D = experiment: Cytotoxicity assay using propidium iodide (PI); format: cell-based; conditions: Homo sapiens, T47D
Procedure: as §1

ZR-75-1 = experiment: Cytotoxicity assay using propidium iodide (PI); format: cell-based; conditions: Homo sapiens
Procedure: as §1

PARP = experiment: Western blot for PARP cleavage in MDA-MB-468; format: cell-based, human; conditions: 1.5 μM and 5 μM, 24 h
Procedure: Correlation of PARP activity and cell cycle proteins cyclin D1, total Rb and pRb 780 were studied in two TNBC cell lines viz. MDA-MB-468 and MDA-MB-231. MDA-MB-231 and MDA-MB-468 cells were seeded in RPMI 1460 medium with 10% FCS in […] tissue culture flask and incubated for 24 h. These cells were treated at 1.5 μM and 5 μM Compound A for 24 h. The cells were harvested (trypsinised) and lysed using lysis buffer. Western blotting was carried out (Molecular Cancer […], 2007, 6, 918-925) using specific antibody to PAR, PARP, cyclin D1, CDK4 and pRb Ser 780.

U251 pGL3 = experiment: Control luciferase reporter cell line (U251 pGL3); format: cell-based; conditions: normoxia
Excerpt: 1) U251 HRE: The genetically engineered cells U251 HRE which stably express a recombinant vector in which the Luciferase reporter gene is under control of three copies of a canonical HRE. 2) U251 pGL3: A control cell line contains the firefly Luciferase reporter gene under control of the constitutively active SV40 promoter and enhancer that helps to exclude compounds that inhibit Luciferase expression in a nonspecific and/or HIF-1-independent fashion. These cells expressed high basal levels of Luciferase in normoxic conditions and slightly lower levels in hypoxic conditions.
U251 HRE cells were inoculated into 96 well white flat-bottomed plates at 10000-15000 cells/well in a volume of 180 μL and incubated for 24 h at 37° C., 5% CO2, and ambient O2. Compound A was tested at various concentrations viz. […] After 20 h incubation, the plates were removed and incubated at room temperature, 5% CO2, and ambient O2 for 1.5 h. 40 μL of Bright Glo Luciferase reagent (Promega™, USA) was added and after 3 min, luminescence was measured using a Polar Star Plate Reader (USA) in luminescence mode. Appropriate control cells (U251 pGL3) were treated identically, except that they were treated at 37° C., 5% CO2 and ambient O2. Compound toxicity was assayed using the MTS assay.

VEGF = VEGF reporter gene based assay (M-9 cells); format: cell-based; conditions: Homo sapiens, hypoxia, 20-24 h, read-out: IC50 for VEGF inhibition under hypoxia
Procedure: A cell line M-9 is MDA-MB-231 which is stably co-transfected with the VEGF-Luc construct (VEGF promoter in pGL2-basic) and a plasmid containing the Geneticin (G418) resistance gene which forms VEGF promoter reporter gene. The expression of the reporter gene in the clone cells, as measured by luciferase activity, is stable.
The effect of Compound A on VEGF inhibition was evaluated using the VEGF reporter gene based assay.
Lysis Assay Buffer (1×) • Tris-Phosphate (pH 7.8)-125 mM, DTT-10 mM, EDTA-10 mM, Glycerol-50% and Triton X-100-5%.
Luciferase Assay Reagent (LAR) • Luciferase Assay Buffer-8 mL, 530 μM ATP-530 μL, 270 μM CoA-1 mL and 170 μM Luciferin-1 mL.
Luciferase Assay Buffer (LAB) (1×) • Tricin (pH 7.8)-20 mM, Magnesia Alba-1.07 mM, MgSO4-2.67 mM, EDTA-0.1 mM and DTT-33.3 mM. ATP Stock made in LAB=5.85 mg/mL CoA Stock made in LAB=2.1 mg/mL Luciferin Stock made in LAB=1.5 mg/mL
1. M-9 cells were sub-cultured and maintained in RPMI-1640 Medium with supplement of 10% FBS, and 4 μL/ml G418 (Stock 100 mg/mL) in a humidified incubator at 37° C. and 5% CO2. 2. Cells were seeded at density of 3×10^4 cells/well in 180 μL volume in tissue culture grade 96 well white plates as well as transparent plates and allowed to adhere for 16-20 h in humidified CO2 incubator (5% CO2) at 37° C. A total of two sets of plates were made, as the incubation conditions are different. 3. Compound A, Sutent® and BSI-201 were diluted in medium serially so that final desired concentrations are achieved in the respective wells. (not more than 0.5% concentration of DMSO in the wells). 4. INCUBATION CONDITIONS: One set of plates are incubated under ambient atmospheric condition with 5% CO2, referred hereafter as NORMOXIC/OXIC PLATE. […] To all the wells, 100 μL Luciferase Assay Reagent (LAR) are added, plates are immediately read for Luminescence on TOPCOUNT™ (Packard, USA). The percentage inhibitions and Inhibitory Concentration (IC50) or Effective Concentration (EC50) are calculated in comparison with Control (untreated) values. […]

`CN1CC[C@@H](c2c(O)cc(O)c3c(=O)cc(-c4ccccc4Cl)oc23)[C@@H]1CO.Cl` [Compound A, (+)-trans-2-(2-Chloro-phenyl)-5,7-dihydroxy-8-(2-hydroxymethyl-1-methyl-pyrrolidin-3-yl)-chromen-4-one hydrochloride] showed an IC50 (BT-549) of 0.8 µM, an IC50 (HBL-100) of 0.51 µM and an IC50 (MDA-MB-361) of 0.75 µM. For the same compound, the IC50 (MDA-MB-435-S) was 0.3 µM, the IC50 (T47-D) was 0.5 µM and the IC50 (ZR-75-1) was 0.9 µM. For the same compound, the PARP cleavage (PARP) was “PARP cleavage was prominent”, the “luciferase expression in control cell line” value (U251 pGL3) was “did not inhibit the luciferase expression” and the IC50 (VEGF) was 0.31 µM.
